Converted amounts (≈) assume the structure as drawn.
How the values were obtained:
[1] = system: Ac. calcoaceticus P-6901; experiment: In vitro antibacterial activity, twofold agar-dilution method; type: cell-based; conditions: Acinetobacter calcoaceticus, P6901; Ac. calcoaceticus P-6901 (Gram -); Mueller-Hinton agar, 20 h, 37° C.; calculated for free base; read-out: minimum inhibitory concentration (MIC)
Procedure: (§1) The numbers in the table show minimum inhibitory concentrations (MIC) (μg/ml), calculated for free base. The minimum inhibitory concentration was determined by the twofold agar-dilution method, which was recommended by Japan Society of Chemotherapy (Chemotherapy, 29(1), 76(1981)), using Muller-Hinton agar. One loopful of an overnight culture of test organisms in Mueller-Hinton broth was inoculated onto 10-ml drug-containing agar layers in petri dishes. Bacterial inocula contained approximately 10^6 colonyl-formingunits. Bacterial growth was observed after 20-hour incubation at 37° C. The MIC was defined as the lowest drug concentration which prevented visible bacterial growth.

[2] = system: B. subtilis PCI 219; experiment: as above; type: cell-based; conditions: Bacillus subtilis, PCI219; B. subtilis PCI 219 (Gram +); Mueller-Hinton agar, 20 h, 37° C.; calculated for free base; read-out: minimum inhibitory concentration (MIC)
Procedure: as §1

[3] = system: E. coli P-51213; experiment: as above; type: cell-based; conditions: Escherichia coli, P51213; E. coli P-51213 (Gram -); Mueller-Hinton agar, 20 h, 37° C.; calculated for free base; read-out: minimum inhibitory concentration (MIC)
Procedure: as §1

[4] = system: P. aeruginosa No. 12; experiment: as above; type: cell-based; conditions: Pseudomonas aeruginosa; P. aeruginosa No. 12 (Gram -); Mueller-Hinton agar, 20 h, 37° C.; calculated for free base; read-out: minimum inhibitory concentration (MIC)
Procedure: as §1

[5] = system: S. aureus No. 80; experiment: as above; type: cell-based; conditions: Staphylococcus aureus; S. aureus No. 80 (Gram +); Mueller-Hinton agar, 20 h, 37° C.; calculated for free base; read-out: minimum inhibitory concentration (MIC)
Procedure: as §1

[6] = system: Pseudomonas aeruginosa 12; experiment: In vivo efficacy against systemic infections in mice; set-up: species or system Pseudomonas aeruginosa; male mice (ddY-S); conditions: Pseudomonas aeruginosa, 12, 168 h, oral, intraperitoneal infection about 5×10^3 cells, 4% mucin, twice, immediately and 6 h after infection, 7 days, calculated for free base, read-out: median effective dose (ED50)
Procedure: Compounds were each dissolved in deionized water. Each of the solutions was orally administered to mice infected with each of the test organisms under the conditions shown hereinbelow, and the median effective dose (ED50) was calculated by probit analysis. The numerals in the table show ED50 (mg/kg) value, calculated for free base.
Mice: Male mice (ddY-S) weighing about 20 g
Pseudomonas aeruginosa 12
Intraperitoneal infection with about 5×10^3 cells per mouse suspended in tryptosoy broth with 4% mucin.
Four times, immediately, 6, 24 and 30 hours after infection in case of Streptococcus pneumoniae 1 Neufeld. Twice, immediately and 6 hours after infection in case of other organisms.
For 14 days in case of Staphylococcus aureus 50774 and Streptocuccus pneumoniae 1 Neufeld. For 7 days in case of other organisms.

[7] = system: Campylobacter jejuni 10812; experiment: Antibacterial activity against Campylobacter jejuni, twofold agar-dilution method; type: cell-based; conditions: strain 10812, blood-containing Mueller-Hinton agar, 48 h, 37° C. microaerobically, calculated for free base, read-out: minimum inhibitory concentration (MIC)
Procedure: (§2) The numbers in the table show minimum inhibitory concentrations (MIC) (μg/ml), calculated for free base. The minimum inhibitory concentration was determined by the twofold agar-dilution method using blood-containing Mueller-Hinton agar. One loopful of a culture of test organisms in Mueller-Hinton broth was inoculated onto 10-ml drug-containing agar layer in petri dishes. Bacterial growth was observed after 48-hour incubation at 37° C. microaerobically. The MIC was defined as the lowest drug concentration which prevented visible bacterial growth.

[8] = system: Campylobacter jejuni 10; experiment: as above; type: cell-based; conditions: strain 10, blood-containing Mueller-Hinton agar, 48 h, 37° C. microaerobically, calculated for free base, read-out: minimum inhibitory concentration (MIC)
Procedure: as §2

[9] = system: Campylobacter jejuni 12; experiment: as above; type: cell-based; conditions: strain 12, blood-containing Mueller-Hinton agar, 48 h, 37° C. microaerobically, calculated for free base, read-out: minimum inhibitory concentration (MIC)
Procedure: as §2

[10] = system: Campylobacter jejuni 170; experiment: as above; type: cell-based; conditions: strain 170, blood-containing Mueller-Hinton agar, 48 h, 37° C. microaerobically, calculated for free base, read-out: minimum inhibitory concentration (MIC)
Procedure: as §2

[11] = system: Campylobacter jejuni 19804; experiment: as above; type: cell-based; conditions: strain 19804, blood-containing Mueller-Hinton agar, 48 h, 37° C. microaerobically, calculated for free base, read-out: minimum inhibitory concentration (MIC)
Procedure: as §2

[12] = system: Campylobacter jejuni 19805; experiment: as above; type: cell-based; conditions: strain 19805, blood-containing Mueller-Hinton agar, 48 h, 37° C. microaerobically, calculated for free base, read-out: minimum inhibitory concentration (MIC)
Procedure: as §2

[13] = system: Campylobacter jejuni 19806; experiment: as above; type: cell-based; conditions: strain 19806, blood-containing Mueller-Hinton agar, 48 h, 37° C. microaerobically, calculated for free base, read-out: minimum inhibitory concentration (MIC)
Procedure: as §2

[14] = system: Campylobacter jejuni 19807; experiment: as above; type: cell-based; conditions: strain 19807, blood-containing Mueller-Hinton agar, 48 h, 37° C. microaerobically, calculated for free base, read-out: minimum inhibitory concentration (MIC)
Procedure: as §2

[15] = system: Campylobacter jejuni 20; experiment: as above; type: cell-based; conditions: strain 20, blood-containing Mueller-Hinton agar, 48 h, 37° C. microaerobically, calculated for free base, read-out: minimum inhibitory concentration (MIC)
Procedure: as §2

[16] = system: Campylobacter jejuni 77; experiment: as above; type: cell-based; conditions: strain 77, blood-containing Mueller-Hinton agar, 48 h, 37° C. microaerobically, calculated for free base, read-out: minimum inhibitory concentration (MIC)
Procedure: as §2

[17] = system: Campylobacter jejuni A-11-3; experiment: as above; type: cell-based; conditions: A113, strain A-11-3, blood-containing Mueller-Hinton agar, 48 h, 37° C. microaerobically, calculated for free base, read-out: minimum inhibitory concentration (MIC)
Procedure: as §2

[18] = system: Campylobacter jejuni A-19-3; experiment: as above; type: cell-based; conditions: A193, strain A-19-3, blood-containing Mueller-Hinton agar, 48 h, 37° C. microaerobically, calculated for free base, read-out: minimum inhibitory concentration (MIC)
Procedure: as §2

[19] = system: Campylobacter jejuni A-24-2; experiment: as above; type: cell-based; conditions: A242, strain A-24-2, blood-containing Mueller-Hinton agar, 48 h, 37° C. microaerobically, calculated for free base, read-out: minimum inhibitory concentration (MIC)
Procedure: as §2

`CC1CN(c2c(F)c(N)c3c(=O)c(C(=O)O)cn(C4CC4)c3c2F)CCN1` (stereo not shown) [Compound 1, 5-Amino-1-cyclopropyl-6,8-difluoro-7-(3-methyl-1-piperazinyl)-1,4-dihydro-4-oxoquinoline-3-carboxylic acid] showed an MIC [1] of 0.0125 µg/mL (≈ 0.033 µM), an MIC [2] of 0.05 µg/mL (≈ 0.132 µM) and an MIC [3] of 0.025 µg/mL (≈ 0.0661 µM). It also gave an MIC [4] of 0.1 µg/mL (≈ 0.264 µM), an MIC [5] of 0.0125 µg/mL (≈ 0.033 µM) and an ED50 [6] of 1.11 mg/kg. The MIC [7] was 0.025 µg/mL (≈ 0.0661 µM), the MIC [8] was 0.0125 µg/mL (≈ 0.033 µM) and the MIC [9] was 0.0125 µg/mL (≈ 0.033 µM). For the same compound, the MIC [10] was 0.0125 µg/mL (≈ 0.033 µM), the MIC [11] was 0.0125 µg/mL (≈ 0.033 µM) and the MIC [12] was 0.0125 µg/mL (≈ 0.033 µM). The MIC [13] was 0.0125 µg/mL (≈ 0.033 µM), the MIC [14] was 0.0125 µg/mL (≈ 0.033 µM) and the MIC [15] was 0.0063 µg/mL (≈ 0.0166 µM). For the same compound, the MIC [16] was 0.0125 µg/mL (≈ 0.033 µM), the MIC [17] was 0.05 µg/mL (≈ 0.132 µM) and the MIC [18] was 0.05 µg/mL (≈ 0.132 µM). It also gave an MIC [19] of 0.05 µg/mL (≈ 0.132 µM).

Reference: patent US4795751A, “5-substituted-6,8-difluoroquinolines useful as antibacterial agents” (Dainippon Pharmaceutical Co., Ltd., priority 1985, dated 1989)
